We go through three molecules from PMC7594077, “An Alcohol Dehydrogenase 3 (ADH3) from Entamoeba histolytica Is Involved in the Detoxification of Toxic Aldehydes” (Microorganisms, 2020).

One test has as its target T1, recEhADH3B^b (Entamoeba histolytica, UniProt C4M6R1).
T1 construct: gene EHI_088020; E. coli BL21(DE3); dimer; EDTA-stripped and reloaded with Ni2+
T1 sequence (C4M6R1 1-382): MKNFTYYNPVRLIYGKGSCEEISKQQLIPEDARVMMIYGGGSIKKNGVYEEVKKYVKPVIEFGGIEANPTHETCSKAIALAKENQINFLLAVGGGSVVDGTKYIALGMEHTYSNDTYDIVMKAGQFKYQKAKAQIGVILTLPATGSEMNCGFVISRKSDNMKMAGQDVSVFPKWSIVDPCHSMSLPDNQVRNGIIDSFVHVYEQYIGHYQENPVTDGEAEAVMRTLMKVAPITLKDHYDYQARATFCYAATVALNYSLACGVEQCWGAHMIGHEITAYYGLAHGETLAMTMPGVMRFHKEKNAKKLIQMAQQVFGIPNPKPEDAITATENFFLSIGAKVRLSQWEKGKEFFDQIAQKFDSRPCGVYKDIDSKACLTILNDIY
Description: NADPH oxidation at […] nm, Michaelis-Menten. The class given is biochemical. Conditions: 0.7 mM NADPH, pH 7.4, EDTA-treated and dialysed enzyme incubated with 1 mM Ni2+; reduction direction.

Test [1] deals with recombinant EhADH3B^b (alcohol dehydrogenase 3B of Entamoeba histolytica) (Entamoeba histolytica). Description: SEC; HiLoad 16/60 Superdex prep grade column; 50 mM Tris, 150 mM NaCl, 10 mM EDTA, 1 mM DTT, 10% glycerol, pH 8.0; elution peak at 82 mL compared with standard proteins.

In the case of `C=O` [formaldehyde], the Km on recEhADH3B^b was 63.7 [95% CI 25.3 to 267.4] mM.

On to “recombinant EhADH3B^b (alcohol dehydrogenase 3B of Entamoeba histolytica) (enzyme)”, for which the stoichiometry N (commonly the number of molecules, sites or subunits per partner or assembly) in test [1] was 2.

Consider `CC=O` [acetaldehyde], for which, on recEhADH3B^b, the Km was 30.84 [95% CI 16.21–60.54] mM.
